# Measurements as given in publication PMC9021288 (Nature Communications, 2022).
# Where “and” joins values, the source holds several entries; their conditions need not be identical. Equal values may be shown once.
# Test system: P. falciparum 3D7 trophozoite-infected RBCs, CoA pathway metabolites
# Assay: Metabolomics of treated infected RBCs (LC/MS)
# Type: cell-based, Plasmodium falciparum
# Procedure: P. falciparum metabolomics analysis was performed by LC/MS as previously described. Briefly, parasite cultures were tightly synchronized at the ring stage one cycle prior to extraction. Trophozoite cultures at 5-10% parasitemia were purified to >90% parasitemia by magnetic purification. Parasites were counted using a hemocytometer, aliquoted to 1 × 10^8 cells per condition in 5 ml medium and then placed into an incubator for 1 h to allow them to reach a metabolically stable state. […] Blank processing samples were also quenched in the same manner to assess background metabolite levels. The samples were centrifuged, the supernatant was collected in a new tube, dried using a nitrogen gas drying rack and stored at -80 °C until they were run on the LC/MS platform.
# For each analytical run, a pooled sample was generated by combining equivalent volumes of each parasite sample to assess metabolite detection and run at the beginning, middle, and end of each analytical batch to detect any possible time-dependent sensitivity changes. The full metabolomics datasets are publicly available on the Metabolomics Workbench database under ST001985[76].
compound,measurement,setting,value
C[C@@H](CNC(=O)[C@H](O)C(C)(C)CO)NC(=O)c1cc(F)c(F)cc1F [MMV693183],Fold change 4'P-Pan,24 nM,0.6372 and 0.7412
same,Fold change Ac-CoA,24 nM,0.5886 and 0.6667
same,Fold change CoA,24 nM,1.122
same,Fold change Pan,24 nM,0.8146 and 0.8416
same,Fold change 4'P-Pan,240 nM,0.3498 and 0.3568
same,Fold change CoA,240 nM,1.064
same,Fold change Pan,240 nM,1.253 and 0.7224
same,effect on endogenous metabolites,dose-dependent,reduced acetyl-CoA and 4-phosphopantothenate levels
